Laboratory results reported in paper PMC6684646, “Lysosomal integral membrane protein-2 (LIMP-2/SCARB2) is involved in lysosomal cholesterol export” (Nature Communications, 2019).

Key:
[1] = target: T1, LIMP-2 ectodomain (His6.hLIMP-2(aa35-430)) (Homo sapiens, UniProt Q14108); assay: microscale thermophoresis; assay type: binding; details: 25 nM protein labelled with Red-tris-NTA; 300 mM NaAc pH 6.0, 150 mM NaCl, 0.05% Tween 20, 0.1% Fos-Choline 13; room temperature; read-out: EC50
T1 construct: gene SCARB2; luminal domain aa 35-430, N-terminal His6 tag (cloned after a protein A tag)
T1 sequence (Q14108 35-430): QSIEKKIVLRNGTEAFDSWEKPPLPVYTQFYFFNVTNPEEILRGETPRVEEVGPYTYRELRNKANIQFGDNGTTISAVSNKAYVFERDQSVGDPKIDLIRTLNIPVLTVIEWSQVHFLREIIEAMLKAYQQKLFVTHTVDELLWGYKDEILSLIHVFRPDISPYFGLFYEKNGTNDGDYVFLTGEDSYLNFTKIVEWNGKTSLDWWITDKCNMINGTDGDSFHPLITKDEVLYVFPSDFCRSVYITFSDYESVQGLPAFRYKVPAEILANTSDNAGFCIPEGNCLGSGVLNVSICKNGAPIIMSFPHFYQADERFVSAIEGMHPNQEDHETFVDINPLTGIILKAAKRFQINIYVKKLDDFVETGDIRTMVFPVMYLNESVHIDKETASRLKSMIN
Source text: microscale thermophoresis on LIMP-2 ectodomain (His6.hLIMP-2(aa35-430)) | direct interaction between purified, soluble His-tagged LIMP-2 protein labeled with Red-tris-NTA dye and cholesterol

[2] = target: T1, LIMP-2 ectodomain (His6.hLIMP-2(aa35-430)); assay: UV crosslinking and click rhodamine, SDS-PAGE; assay type: binding; details: covalent; labelled compound; 50 µM probe, 12 h at 4 °C, UV 15 min

SMILES	Kd [1]	UV crosslinking and click rhodamine, SDS-PAGE [2]
CC(C)CCC[C@@H](C)[C@H]1CC[C@H]2[C@@H]3CC=C4C[C@@H](O)CC[C@]4(C)[C@H]3CC[C@]12C [cholesterol]	112 ± 32 nM	
C#CCCCC1(CCCCCCCCC(=O)N[C@@H](CO)[C@H](O)/C=C/CCCCCCCCCCCCC)N=N1 [pacFA ceramide]		fatty acids, ceramide and sphingosine bound with lower affinity
C#CCCCC1(CCCCCCCCC(=O)O)N=N1 [pacFA]		fatty acids, ceramide and sphingosine bound with lower affinity
C#CCCCC1(CCCCCCCC/C=C/[C@@H](O)[C@@H](N)CO)N=N1 [photoclick sphingosine]		fatty acids, ceramide and sphingosine bound with lower affinity
